Test results: patent publication US20260098283A1, “In Vitro Bioproduction of Specific Chain Legnth Poly(hydroxyalkanoate) Monomers” (Kimberly-Clark Worldwide, Inc., priority 2022, published 2026)

How the values were obtained:
[1] = test system: fatty acid-CoA ligase QKS24074; assay: substrate chain length preference of fatty acid-CoA ligase QKS24074; assay type: biochemical, Halomonas titanicae; details: for suitability of the enzyme for the fatty acid (optimal / possible / not possible): result in words; for percent activity: substrate chain length preference distribution, percent activity vs. carbon length, enzyme QKS24074
Excerpt: (§1) • Sources: Enzyme sequences were identified by searching the NCBI Protein or Identical Protein Group databases. For this example, it was decided to focus primarily on the thermohalophile Thermobifida halotolerans. Sequences and accession numbers for the enzymes used in this work are listed in Appendix I. All general laboratory chemicals and long chain fatty acids were purchased from Millipore-Sigma Chemical Company (St. Louis, MO). Cloning materials and protein purification supplies were from New England Biolabs (Beverly, MA). • Enzyme cloning: The amino acid sequence for each enzyme was searched for potential signal sequences. If one was present it was removed from the sequence. A histine tag and a TEV protease cleavage sequence were added to the N-ter of each enzyme. This sequence was MHHHHHHENLYFQS to assist in purification (via an NTA-Ni column) and subsequent removal of the hexahistidine tag. Each recombinant enzyme began with an N-ter serine residue as TEV protease cleaves after the glutamine (Q). Each amino acid sequence was back translated to an E. coli codon optimized nucleic acid sequence and was synthesized using standard laboratory gene synthesis techniques. The insert was digested with Nde I and cloned into the similarly digested expression vector pET11d. Final DNA sequences were verified by DNA sequencing. Expression plasmids were used to transform E. coli Origami2 (DE3) for expression. • Protein expression and purification: A single colony was used to inoculate 5.0 mL of LBamp media (80 mg/ml ampicillin concentration). Bacteria were grown for 12 hours at 37° C. and this culture was used to inoculate 500 mL of LBamp media. This culture was grown at 37° C. until the optical density (600 nm) reached 0.4 (typically in 3-5 hours). Protein expression was induced by the addition of IPTG to a final concentration of 1 mM. Cells were grown for 12 hours at 37° C. Cells were harvested by centrifugation at 5,000×g for 20 minutes, and frozen at −80° C. until use (minimal time frozen was 24 hours). Cells were thawed on ice and were resuspended in Buffer A (0.5 M NaCl, 20 mM Tris-HCl, 5 mM imidazole, pH 7.9) (typically 1 mL per gram of cells). Cells were disrupted via two passes through a French Press followed by centrifugation at 30,000×g for 30 minutes. The crude extract was mixed with an equal volume of charged His-Bind resin slurry and the mixture was poured into 5 cm×4.9 cc column. The column was washed with 10 column volumes of wash buffer (0.5 M NaCl, 20 mM Tris-HCl, 60 mM imidazole, pH 7.9) at a flow rate of 0.2 mL/min. Enzyme was eluted from the column with the addition of 3 column volumes of 0.5 M NaCl, 20 mM Tris-HCl, 1.0 M imidazole, pH 7.9. Fractions were collected (1.0 mL). Fractions containing enzyme were pooled after analysis by SDS PAGE. The pooled fractions were applied to a 70 cmp×4.9 cc Sephadex G-75 column (10 mM Tris-HCl, PH 7.5, 1 mM EDTA). Fractions containing homogeneous protein were pooled (after inspection by SDS PAGE) and concentrated to 5 mg/ml via Centricon filters. Enzyme was stored frozen at −20° C. until use. The TRX-histidine tag region was removed from the enzymes using TEV protease. Protein was diluted to 1.0 mg/ml into 10 mM Tris-HCl, pH 7.5, 25 mM NaCl. 100 U of TEV protease was added per mg of enzyme (approximate ratio of 1:100 (w/w). The reaction was allowed to proceed for 16 h at 4° C. The mixture was passed over a charged nickel column. One column volume of eluent was collected representing purified tag-free enzyme. • Enzyme assays: The formation of long-chain fatty acid-CoA was monitored by measuring the amount of pyrophosphate released from the reaction using the MAK 168 pyrophosphate assay kit from Millipore-Sigma Chemical Co (St. Louis, MO). The formation of PHA was monitored by the increase in optical density (650 nm) as a function of time in a Molecular Devices SpectraMax 5 spectrometer. The assay measures the increase in light scattering due to precipitating PHA formed during the reaction. […]

fatty acid-CoA ligase = assay: long-chain fatty acid CoA ligase reaction time course, Example 5; assay type: biochemical, Halomonas titanicae; details: Example 5, FIG. 20/21; 1.0 M NaCl, pH 7.5
Excerpt: (§2) • Sources: Enzyme sequences were identified by searching the NCBI Protein or Identical Protein Group databases. For this example, it was decided to focus primarily on the thermohalophile Thermobifida halotolerans. Sequences and accession numbers for the enzymes used in this work are listed in Appendix I. All general laboratory chemicals and long chain fatty acids were purchased from Millipore-Sigma Chemical Company (St. Louis, MO). Cloning materials and protein purification supplies were from New England Biolabs (Beverly, MA). • Enzyme cloning: The amino acid sequence for each enzyme was searched for potential signal sequences. If one was present it was removed from the sequence. A histine tag and a TEV protease cleavage sequence were added to the N-ter of each enzyme. This sequence was MHHHHHHENLYFQS to assist in purification (via an NTA-Ni column) and subsequent removal of the hexahistidine tag. Each recombinant enzyme began with an N-ter serine residue as TEV protease cleaves after the glutamine (Q). Each amino acid sequence was back translated to an E. coli codon optimized nucleic acid sequence and was synthesized using standard laboratory gene synthesis techniques. The insert was digested with Nde I and cloned into the similarly digested expression vector pET11d. Final DNA sequences were verified by DNA sequencing. […] 100 U of TEV protease was added per mg of enzyme (approximate ratio of 1:100 (w/w). The reaction was allowed to proceed for 16 h at 4° C. The mixture was passed over a charged nickel column. One column volume of eluent was collected representing purified tag-free enzyme. • Enzyme assays: The formation of long-chain fatty acid-CoA was monitored by measuring the amount of pyrophosphate released from the reaction using the MAK 168 pyrophosphate assay kit from Millipore-Sigma Chemical Co (St. Louis, MO). The formation of PHA was monitored by the increase in optical density (650 nm) as a function of time in a Molecular Devices SpectraMax 5 spectrometer. […]

[2] = test system: fatty acid-CoA ligase QKS26753; assay: substrate chain length preference of fatty acid-CoA ligase QKS26753; assay type: biochemical, Halomonas titanicae; details: for suitability of the enzyme for the fatty acid (optimal / possible / not possible): result in words; for percent activity: substrate chain length preference distribution, percent activity vs. carbon length, enzyme QKS26753
Excerpt: as §1

[3] = test system: fatty acid-CoA ligase QKS24113; assay: substrate chain length preference of fatty acid-CoA ligase QKS24113; assay type: biochemical, Halomonas titanicae; details: for suitability of the enzyme for the fatty acid (optimal / possible / not possible): result in words; for percent activity: substrate chain length preference distribution, percent activity vs. carbon length, enzyme QKS24113
Excerpt: as §1

[4] = test system: fatty acid-CoA ligase QKS23364; assay: substrate chain length preference of fatty acid-CoA ligase QKS23364; assay type: biochemical, Halomonas titanicae; details: for suitability of the enzyme for the fatty acid (optimal / possible / not possible): result in words; for percent activity: substrate chain length preference distribution, percent activity vs. carbon length, enzyme QKS23364
Excerpt: as §1

[5] = test system: fatty acid-CoA ligase QKS25406; assay: substrate chain length preference of fatty acid-CoA ligase QKS25406; assay type: biochemical, Halomonas titanicae; details: for suitability of the enzyme for the fatty acid (optimal / possible / not possible): result in words; for percent activity: substrate chain length preference distribution, percent activity vs. carbon length, enzyme QKS25406
Excerpt: as §1

[6] = test system: five-step reaction from long-chain fatty acid CoA to PHA; assay: formation of precipitating PHA, optical density 650 nm, Example 5; assay type: biochemical, Halomonas titanicae; details: Example 5, FIG. 22; fatty acid as starting material
Excerpt: as §2

[7] = test system: overall 5-step reaction from long-chain fatty acid CoA to PHA; assay: formation of precipitating PHA, optical density 650 nm, Example 1; assay type: biochemical, Thermobifida halotolerans; details: Example 1, FIG. 8; fatty acid as starting material
Excerpt: as §2, with “sequencing. Expression plasmids were used to transform E. coli Origami2 (DE3) for expression. • Protein expression and purification: A single colony was used to inoculate 5.0 mL of LBamp media (80 mg/ml ampicillin concentration). Bacteria were grown for 12 hours at 37° C. and this culture was used to inoculate 500 mL of LBamp media. This culture was grown at 37° C. until the optical density (600 nm) reached 0.4 (typically in 3-5 hours). Protein expression was induced by the addition of IPTG to a final concentration of 1 mM. Cells were grown for 12 hours at 37° C. Cells were harvested by centrifugation at 5,000×g for 20 minutes, and frozen at −80° C. until use (minimal time frozen was 24 hours).” for “sequencing.”

[8] = test system: long-chain fatty acid CoA ligase; assay: long-chain fatty acid CoA ligase reaction time course, Example 1 (fatty acid loss, pyrophosphate formation); assay type: biochemical, Thermobifida halotolerans; details: Example 1, FIG. 6/7; single fatty acid substrate
Excerpt: as §2, with “sequence.” for “sequence. A histine tag and a TEV protease cleavage sequence were added to the N-ter of each enzyme. This sequence was MHHHHHHENLYFQS to assist in purification (via an NTA-Ni column) and subsequent removal of the hexahistidine tag. Each recombinant enzyme began with an N-ter serine residue as TEV protease cleaves after the glutamine (Q). Each amino acid sequence was back translated to an E. coli codon optimized nucleic acid sequence and was synthesized using standard laboratory gene synthesis techniques. The insert was digested with Nde I and cloned into the similarly digested expression vector pET11d. Final DNA sequences were verified by DNA sequencing.”

[9] = test system: WP_068692787 enzyme (long chain fatty acid-CoA synthetase); assay: formation of the CoA moiety followed by pyrophosphate formation, Example 4; assay type: biochemical, Thermobifida halotolerans; details: Example 4, FIG. 16; result in words
Excerpt: as §2, with “sequence.” for “sequence. A histine tag and a TEV protease cleavage sequence were added to the N-ter of each enzyme. This sequence was MHHHHHHENLYFQS to assist in purification (via an NTA-Ni column) and subsequent removal of the hexahistidine tag. Each recombinant enzyme began with an N-ter serine residue as TEV protease cleaves after the glutamine (Q). Each amino acid sequence was back translated to an E. coli codon optimized nucleic acid sequence and was synthesized using standard laboratory gene synthesis techniques. The insert was digested with Nde I and cloned into the similarly digested expression vector pET11d. Final DNA sequences were verified by DNA sequencing.”

[10] = test system: WP_068689753 enzyme (long chain fatty acid-CoA synthetase); assay: formation of the CoA moiety followed by pyrophosphate formation, Example 3; assay type: biochemical, Thermobifida halotolerans; details: Example 3, FIG. 13; sole substrate
Excerpt: as §2, with “sequence.” for “sequence. A histine tag and a TEV protease cleavage sequence were added to the N-ter of each enzyme. This sequence was MHHHHHHENLYFQS to assist in purification (via an NTA-Ni column) and subsequent removal of the hexahistidine tag. Each recombinant enzyme began with an N-ter serine residue as TEV protease cleaves after the glutamine (Q). Each amino acid sequence was back translated to an E. coli codon optimized nucleic acid sequence and was synthesized using standard laboratory gene synthesis techniques. The insert was digested with Nde I and cloned into the similarly digested expression vector pET11d. Final DNA sequences were verified by DNA sequencing.”

| suitability of the enzyme for the fatty acid (optimal / possible / not possible) [1] | percent activity [1] [%] | time to completion of the long-chain fatty acid CoA ligase reaction (fatty acid-CoA ligase) | suitability of the enzyme for the fatty acid (optimal / possible / not possible) [2] | percent activity [2] [%] | suitability of the enzyme for the fatty acid (optimal / possible / not possible) [3] | percent activity [3] [%] | suitability of the enzyme for the fatty acid (optimal / possible / not possible) [4] | percent activity [4] [%] | suitability of the enzyme for the fatty acid (optimal / possible / not possible) [5] | percent activity [5] [%] | SMILES | duration of linear formation of precipitating PHA after the lag [6] [min] | duration of linear formation of precipitating PHA after the lag [7] [min] | lag before measurable increase in optical density (650 nm) [7] | time to completion of the long-chain fatty acid CoA ligase reaction [8] | conversion into the CoA moiety [9] | completion of formation of the CoA moiety [10] [min] | lag period of formation of the CoA moiety [10] [min] |
| --- | --- | --- | --- | --- | --- | --- | --- | --- | --- | --- | --- | --- | --- | --- | --- | --- | --- | --- |
| optimal enzyme | 100 | complete within two hours | not possible enzymes | 0.0 | not possible enzymes | 0.0 | much lower activity | 25.0 | not possible enzymes | 0.0 | CCCCCCCC(=O)O [C6, octanoic acid] | 100 |  |  |  |  |  |  |
| much lower activity | 21.0 | complete within two hours | optimal enzymes | 100 | much lower activity | 5.2 | optimal enzymes | 100 | much lower activity | 11.6 | CCCCCCCCCCCCCC(=O)O [C12, myristic acid] | 100 | 150 | approximately 50 minutes | complete within two hours |  |  |  |
|  | 0.0 |  |  | 5.6 |  | 100 |  | 100 |  | 100 | CCCCCCCCCCCCCCCCCCCC(=O)O [C18, arachidic acid] |  | 150 | approximately 50 minutes | complete within two hours |  |  |  |
|  | 100 |  |  | 0.0 |  | 0.0 |  | 70.7 |  | 0.0 | CCCCCCCCCC(=O)O [C8] |  |  |  |  |  |  |  |
|  | 0.0 |  |  | 100 |  | 21.1 |  | 100 |  | 30.4 | CCCCCCCCCCCCCCCC(=O)O [C14] |  |  |  |  |  |  |  |
|  |  |  |  |  |  |  |  |  |  |  | CCCCCCC(=O)O [Heptanoic acid] |  |  |  |  | readily converted |  |  |
|  |  |  |  |  |  |  |  |  |  |  | CCCCCCCCCCCCCCCCCCCCCCCCCC(=O)O [hexacosanoic acid] |  |  |  |  |  | 240 | 50 |

| SMILES | suitability of the enzyme for the fatty acid (optimal / possible / not possible) [1] | percent activity [1] [%] | time to completion of the long-chain fatty acid CoA ligase reaction (fatty acid-CoA ligase) | suitability of the enzyme for the fatty acid (optimal / possible / not possible) [2] | percent activity [2] [%] | suitability of the enzyme for the fatty acid (optimal / possible / not possible) [3] | percent activity [3] [%] | suitability of the enzyme for the fatty acid (optimal / possible / not possible) [4] | percent activity [4] [%] | suitability of the enzyme for the fatty acid (optimal / possible / not possible) [5] | percent activity [5] [%] | duration of linear formation of precipitating PHA after the lag [6] [min] | duration of linear formation of precipitating PHA after the lag [7] [min] | lag before measurable increase in optical density (650 nm) [7] | time to completion of the long-chain fatty acid CoA ligase reaction [8] | conversion into the CoA moiety [9] | completion of formation of the CoA moiety [10] [min] | lag period of formation of the CoA moiety [10] [min] |
| --- | --- | --- | --- | --- | --- | --- | --- | --- | --- | --- | --- | --- | --- | --- | --- | --- | --- | --- |
| CCCCCCCCCCCCCCCCCCCCCC(=O)O [C20, behenic acid] | not possible enzymes | 0.0 | complete within two hours | not possible enzymes | 0.0 | optimal enzymes | 100 | much lower activity | 46.5 | optimal enzymes | 100 | 100 |  |  |  |  |  |  |
